In BindingDB's records for patent US9707233 (Incyte Holdings Corporation, 2017) one finds IC50 data, which are given here for two compounds.

Molecules are shown by their SMILES.

This experiment deals with T1, Phosphatidylinositol 4,5-bisphosphate 3-kinase catalytic subunit delta isoform (Homo sapiens, UniProt O00329).
T1 sequence (O00329 whole entry): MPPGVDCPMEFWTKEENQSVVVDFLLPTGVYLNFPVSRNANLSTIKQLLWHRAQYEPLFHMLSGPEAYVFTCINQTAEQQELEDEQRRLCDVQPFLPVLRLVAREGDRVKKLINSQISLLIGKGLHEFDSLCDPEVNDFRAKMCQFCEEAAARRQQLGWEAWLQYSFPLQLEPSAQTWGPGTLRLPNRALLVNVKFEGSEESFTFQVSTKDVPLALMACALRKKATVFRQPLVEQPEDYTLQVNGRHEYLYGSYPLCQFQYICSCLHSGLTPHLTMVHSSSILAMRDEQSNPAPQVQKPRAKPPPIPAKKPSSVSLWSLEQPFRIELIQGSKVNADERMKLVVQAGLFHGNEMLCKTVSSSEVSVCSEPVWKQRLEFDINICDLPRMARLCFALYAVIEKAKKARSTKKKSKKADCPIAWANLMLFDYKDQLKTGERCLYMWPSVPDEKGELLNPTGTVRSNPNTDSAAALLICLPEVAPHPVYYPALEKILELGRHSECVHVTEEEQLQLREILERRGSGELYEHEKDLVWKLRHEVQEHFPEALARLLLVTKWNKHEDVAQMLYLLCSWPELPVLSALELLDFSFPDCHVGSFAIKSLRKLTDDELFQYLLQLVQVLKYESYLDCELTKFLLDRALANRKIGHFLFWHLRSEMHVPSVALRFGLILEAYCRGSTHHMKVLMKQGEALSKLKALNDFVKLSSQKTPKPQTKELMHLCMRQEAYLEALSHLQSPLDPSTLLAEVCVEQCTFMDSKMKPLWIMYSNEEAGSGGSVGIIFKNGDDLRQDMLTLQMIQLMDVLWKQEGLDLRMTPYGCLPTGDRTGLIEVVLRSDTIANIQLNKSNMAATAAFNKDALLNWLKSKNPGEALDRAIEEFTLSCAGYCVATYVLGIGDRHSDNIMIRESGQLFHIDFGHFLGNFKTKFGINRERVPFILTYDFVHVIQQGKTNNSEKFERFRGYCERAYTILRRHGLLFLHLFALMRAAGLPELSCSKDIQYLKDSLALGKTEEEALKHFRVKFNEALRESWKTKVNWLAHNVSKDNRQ
Put plainly: A2 PI3Kdelta Scintillation Proximity Assay. The note with it: pH 6.7; 25 °C. How it is done:
PI3K isoforms α, β, δ and γ are purchased from Millipore (Bedford, Mass.). […] Inhibitors are first diluted serially in DMSO and added to the plate wells before the addition of other reaction components. The final concentration of DMSO in the assay is 0.5%. The PI3K assays are carried out at room temperature in 20 mM MOPS, pH 6.7, 10 mM MgCl2, 5 mM DTT and CHAPS 0.03%. The reaction mixture is prepared containing 50 μM PIP2, kinase and varying concentration of inhibitors. […] Reactions are incubated for 180 minutes and terminated by the addition of 100 μL of 1 M potassium phosphate pH 8.0, 30 mM EDTA quench buffer. A 100 μL aliquot of the reaction solution are then transferred to 96-well Millipore MultiScreen IP 0.45 μm PVDF filter plate (The filter plate is prewetted with 200 μL 100% ethanol, distilled water, and 1 M potassium phosphate pH 8.0, respectively). […] After drying by aspiration and blotting, the plate is air dried in an incubator at 37° C. overnight. Packard TopCount adapter (Millipore) is then attached to the plate followed with addition of 120 μL Microscint 20 scintillation cocktail (Perkin Elmer) in each well. After the plate sealing, the radioactivity of the product is determined by scintillation counting on Topcount (Perkin-Elmer). […]
On the technique in general: Scintillation proximity formats need no separation of bound from free tracer.

Turning to `COc1c(C(C)n2nc(C)c3c(N)ncnc32)cc(Cl)c(C)c1C1CN(CC(F)F)C1` (single isomer, unassigned) [US9707233, 112], the IC50 (as a rule, the concentration at which inhibition is half-maximal) is below 10 nM. For `CCOc1c(C(C)n2nc(C)c3c(N)ncnc32)cc(Cl)c(C#N)c1C1CN(C(C)(C)C(=O)N(C)C)C1` (single isomer, unassigned) [US9707233, 241] the value was below 10 nM.
